Assay results as given in article PMC6714992 (Clinical and Applied Thrombosis/Hemostasis, 2019).

Biological target: factor Xa (Bos taurus, UniProt P00743)
Experiment: kinetic amidolytic
Assay type: biochemical

Chain of factor Xa (P00743 41-180): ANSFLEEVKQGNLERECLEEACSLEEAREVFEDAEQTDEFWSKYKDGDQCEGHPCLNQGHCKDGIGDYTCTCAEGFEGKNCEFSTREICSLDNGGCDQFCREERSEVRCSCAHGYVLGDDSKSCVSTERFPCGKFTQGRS
Chain of factor Xa (P00743 234-492): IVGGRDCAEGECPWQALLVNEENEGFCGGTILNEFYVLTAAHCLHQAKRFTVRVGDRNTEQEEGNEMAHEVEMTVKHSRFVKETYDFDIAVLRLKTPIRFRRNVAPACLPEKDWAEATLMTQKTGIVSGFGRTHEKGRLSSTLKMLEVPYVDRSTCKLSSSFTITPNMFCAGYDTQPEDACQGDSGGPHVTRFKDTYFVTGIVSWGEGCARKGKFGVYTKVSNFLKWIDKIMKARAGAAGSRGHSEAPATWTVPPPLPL

`COc1ccc(NC(=O)c2ccc(C(=N)N(C)C)cc2)c(C(=O)Nc2ccc(Cl)cn2)c1` [betrixaban] was tested, and the IC50 was over 2880 nM.
